Test system: 926638-142-R-J1-PDC complex spheroid viability
Test: Anticancer human tumor 926638-142-R-J1-PDC patient-derived endometrial carcinoma cell line growth inhibition [POLQ]
Details: for IC50: curve of first compound; for viability, T/C: stronger effect = lower value
Summary of the method: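 Patient-derived tumour cells were co-cultured with HUVEC and mesenchymal stem cells as multicellular spheroids at 37 °C. They were treated with POLQ inhibitors (novobiocin, ART-558, RP6685) alone or combined with other agents. Top concentrations were at or near clinical Cmax (otherwise 10 microM; SN-38 at 1 microM), decreasing in half-log steps.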

[1] = second compound 0.0316 µM, first compound 0.0316 µM
[2] = second compound 0.0316 µM, first compound 0.1 µM
[3] = second compound 0.0316 µM, first compound 0.316 µM
[4] = second compound 0.0316 µM, first compound 1 µM
[5] = second compound 0.1 µM, first compound 0.0316 µM
[6] = second compound 0.1 µM, first compound 0.1 µM
[7] = second compound 0.1 µM, first compound 0.316 µM
[8] = second compound 0.1 µM, first compound 1 µM
[9] = second compound 0.316 µM, first compound 0.0316 µM
[10] = second compound 0.316 µM, first compound 0.1 µM
[11] = second compound 0.316 µM, first compound 0.316 µM
[12] = second compound 0.316 µM, first compound 1 µM
[13] = second compound 1 µM, first compound 0.0316 µM
[14] = second compound 1 µM, first compound 0.1 µM
[15] = second compound 1 µM, first compound 0.316 µM
[16] = second compound 1 µM, first compound 1 µM
[17] = second compound 3.16 µM, first compound 0.0316 µM
[18] = second compound 3.16 µM, first compound 0.1 µM
[19] = second compound 3.16 µM, first compound 0.316 µM
[20] = second compound 3.16 µM, first compound 1 µM
[21] = second compound 10 µM, first compound 0.0316 µM
[22] = second compound 10 µM, first compound 0.1 µM
[23] = second compound 10 µM, first compound 0.316 µM
[24] = second compound 10 µM, first compound 1 µM
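Note: spheroids exposed to drugs for one week before readout.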
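Throughout, for viability, T/C: percent viability relative to DMSO vehicle control wells set as 100%.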

CCCS(=O)(=O)Nc1ccc(F)c(C(=O)c2c[nH]c3ncc(-c4ccc(Cl)cc4)cc23)c1F + Cc1cccc(N(C)C(=O)C2C(O)CCN2c2nc(C)cc(C(F)(F)F)c2C#N)c1
IC50 (second compound 0.0316 µM): 9510 nM | IC50 (second compound 0.1 µM): > 10000 nM | IC50 (second compound 0.316 µM): > 10000 nM | IC50 (second compound 1 µM): > 10000 nM | IC50 (second compound 3.16 µM): 9330 nM | IC50 (second compound 10 µM): > 10000 nM | viability, T/C [1]: 110% | viability, T/C [2]: 95.8% | viability, T/C [3]: 97.4% | viability, T/C [4]: 103% | viability, T/C (second compound 0.0316 µM, first compound 3.16 µM): 102% | viability, T/C (second compound 0.0316 µM, first compound 10 µM): 47.6% | viability, T/C [5]: 117% | viability, T/C [6]: 103% | viability, T/C [7]: 96.2% | viability, T/C [8]: 96.9% | viability, T/C (second compound 0.1 µM, first compound 3.16 µM): 86.4% | viability, T/C (second compound 0.1 µM, first compound 10 µM): 58.2% | viability, T/C [9]: 114% | viability, T/C [10]: 123% | viability, T/C [11]: 94.2% | viability, T/C [12]: 97% | viability, T/C (second compound 0.316 µM, first compound 3.16 µM): 80.4% | viability, T/C (second compound 0.316 µM, first compound 10 µM): 55.1% | viability, T/C [13]: 95.1% | viability, T/C [14]: 99.4% | viability, T/C [15]: 89% | viability, T/C [16]: 110% | viability, T/C (second compound 1 µM, first compound 3.16 µM): 86% | viability, T/C (second compound 1 µM, first compound 10 µM): 49.8% | viability, T/C [17]: 104% | viability, T/C [18]: 114% | viability, T/C [19]: 87.1% | viability, T/C [20]: 88.9% | viability, T/C (second compound 3.16 µM, first compound 3.16 µM): 94.7% | viability, T/C (second compound 3.16 µM, first compound 10 µM): 46.7% | viability, T/C [21]: 97.7% | viability, T/C [22]: 94.1% | viability, T/C [23]: 77.1% | viability, T/C [24]: 76.4% | viability, T/C (second compound 10 µM, first compound 3.16 µM): 89.4% | viability, T/C (second compound 10 µM, first compound 10 µM): 56%

CCc1c2c(nc3ccc(O)cc13)-c1cc3c(c(=O)n1C2)COC(=O)[C@]3(O)CC + Cc1cccc(N(C)C(=O)C2C(O)CCN2c2nc(C)cc(C(F)(F)F)c2C#N)c1
IC50 (second compound 0.0316 µM): 6.18 nM | IC50 (second compound 0.1 µM): 11.9 nM | IC50 (second compound 0.316 µM): 12 nM | IC50 (second compound 1 µM): 9.83 nM | IC50 (second compound 3.16 µM): 12.2 nM | IC50 (second compound 10 µM): 10.7 nM | viability, T/C (second compound 0.0316 µM, first compound 0.00316 µM): 55.6% | viability, T/C (second compound 0.0316 µM, first compound 0.01 µM): 43.5% | viability, T/C [1]: 38% | viability, T/C [2]: 17.1% | viability, T/C [3]: 11.1% | viability, T/C [4]: 5.47% | viability, T/C (second compound 0.1 µM, first compound 0.00316 µM): 75.3% | viability, T/C (second compound 0.1 µM, first compound 0.01 µM): 51.9% | viability, T/C [5]: 35.1% | viability, T/C [6]: 17.8% | viability, T/C [7]: 9.35% | viability, T/C [8]: 4.26% | viability, T/C (second compound 0.316 µM, first compound 0.00316 µM): 69.8% | viability, T/C (second compound 0.316 µM, first compound 0.01 µM): 52.8% | viability, T/C [9]: 35.6% | viability, T/C [10]: 19.3% | viability, T/C [11]: 12.3% | viability, T/C [12]: 4.42% | viability, T/C (second compound 1 µM, first compound 0.00316 µM): 69.6% | viability, T/C (second compound 1 µM, first compound 0.01 µM): 50.9% | viability, T/C [13]: 29.8% | viability, T/C [14]: 17% | viability, T/C [15]: 13.9% | viability, T/C [16]: 4.44% | viability, T/C (second compound 3.16 µM, first compound 0.00316 µM): 62.8% | viability, T/C (second compound 3.16 µM, first compound 0.01 µM): 54% | viability, T/C [17]: 35.1% | viability, T/C [18]: 21.1% | viability, T/C [19]: 9.95% | viability, T/C [20]: 5.61% | viability, T/C (second compound 10 µM, first compound 0.00316 µM): 69.4% | viability, T/C (second compound 10 µM, first compound 0.01 µM): 50.5% | viability, T/C [21]: 34.6% | viability, T/C [22]: 22.5% | viability, T/C [23]: 10.4% | viability, T/C [24]: 4.3%

— PubChem BioAssay AID1963826 (Molecular Pharmacology Branch, DTP, NCI, 2024)
